Reference: PubChem BioAssay AID179 (DTP/NCI, 2004)
“And” between values parts separate entries of the source, which are not always exact repeats. Equal entries are not always repeated. The source made the active and inactive calls.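 How the source made its calls: active means compounds giving half or more protection of infected cells from virus-caused growth loss, again on retest; inactive means the rest.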

Tested on: CEM cells HIV-1 protection, formazan growth assay
Experiment: NCI AIDS Antiviral Assay
Conditions: for IC50: measured here: growth of uninfected CEM cells
In short: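 Protection of CEM cells against HIV-1 measured as cell growth via soluble formazan read-out, with five concentrations tested on both infected and uninfected cells; failure to protect may reflect toxicity.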

Structure (SMILES) | EC50 [µM] | IC50 | outcome
CCOC(=O)c1ccc(N2C(=O)/C(=C/c3ccc(N(CCC#N)CCC#N)cc3)N=C2c2cc([N+](=O)[O-])ccc2Cl)cc1 | > 12 | > 12 µM | –
O=C1N=C2SC(=S)NC(=S)N2NC12c1ccccc1-c1ccccc12 | > 200 | 32.4 µM | –
CC1(C)CC(=O)C(Cc2ccccc2)(Cc2ccccc2)C(=O)C1 | – | – | inactive
COc1cc2cnc3c4cc(OS(=O)(=O)c5ccccc5)ccc4ccc3c2cc1OC | > 14.5 | > 14.5 µM | –
CS(=O)(=O)NNS(=O)(=O)c1ccc(Br)cc1 | > 398 | > 398 µM | –
c1ccc2c(c1)Nc1nc3nonc3nc1N2 | > 200 | > 200 µM | –
COP(=O)(OC)C(=O)c1ccccc1 | > 1150 | > 1150 µM | –
CSc1nc[nH]c1C(N)=S | > 200 | > 200 µM | –
COc1ccccc1/C=C(\NC(=O)c1ccccc1)c1nc2ccc(Cl)cc2[nH]1 | > 46.8 | > 46.8 µM | –
OC1OC(c2ccc[nH]2)C(F)(F)C(F)(F)C1(F)F (centres undefined) | > 200 | 67.6 µM | –
Cc1ccccc1N1C(=O)C2C=CC(n3[nH]c(=O)n(Cc4ccccc4)c3=O)CC2C1=O (centres undefined) | > 219 | > 219 µM | –
On1ccccc1=S | > 2 | 1.32 µM | –
Cc1cccc(Nc2c3c(nc4ccccc24)CCCCC3)c1 | – | – | inactive
O=C1NC(N2CCOCC2)=N/C1=C\c1ccc(Cl)cc1 | > 200 | > 200 µM | –
COCN1COCN=C1NC#N | > 525 | > 525 µM | –
NC(=O)NC1=NC(Cc2ccccc2)C(=O)N1Cc1ccccc1 (centres undefined) | > 200 | 182 µM | –
N#Cc1c(-c2ccccc2)ssc1=S | > 200 | 14.1 µM | –
CC(C)(C)C1CCC(C[Se]c2ccc(Cl)cc2)([N+](=O)[O-])CC1 (centres undefined) | – | – | inactive
CCNCCN.[O-][Cl+3]([O-])([O-])[O-].[Pd+2].c1ccc(-c2ccccn2)nc1 | > 200 | 30.9 µM | –
C[N+](C)(C)CC(=O)N/N=C(\CCC(=O)NCCc1ccccc1)CC(=O)c1ccccc1 | – | – | inactive
O=[N+]([O-])c1cccc(S(=O)(=O)SSS(=O)(=O)c2cccc([N+](=O)[O-])c2)c1 | > 40.7 | > 40.7 µM | –

Structure (SMILES) | EC50 [µM] | IC50 | outcome
CCN=C(N)Nc1ccccc1 | > 200 | 132 µM | –
Cc1ccccc1N1C(=O)[N+](C)(C)N=C1[O-] | > 1150 | > 1150 µM | –
Nc1ncnc2c1ncn2C1CC(CO)C(CO)C1 (centres undefined) | > 95.5 | > 95.5 µM | –
COC1OC2COC(c3ccccc3)OC2C2N=C(N)N([N+](=O)[O-])C12OS(C)(=O)=O (centres undefined) | – | – | inactive
CN(C)C1C(=O)C(C(N)=O)=C(O)C2(O)C(=O)C3=C(O)c4c(O)cccc4C(C)(O)C3CC12 (centres undefined) | > 562 | 40.7 µM and 10.7 µM | –
Cn1c(=O)c2[nH]c(NN)nc2n(C)c1=O | > 200 | 105 µM | –
CCOC(=O)/C(C#N)=C1/c2ccccc2C(=O)C1(Cl)C(N)=O (centres undefined) | > 200 | 28.8 µM | –
O=C(NCCC[P+](c1ccccc1)(c1ccccc1)c1ccccc1)OCc1ccccc1 | > 200 | 1.58 µM | –
COc1cc(C(=O)Nc2cccc3ccccc23)c(Br)c(OC)c1OC | > 45.7 | > 45.7 µM | –
N#CCN1c2ccccc2CCC1Cl (centres undefined) | > 200 | > 200 µM | –
C=CC[C@@]12CC(C=CC13OCCO3)OC(=O)[C@@H]2C | > 200 | > 200 µM | –
O=[N+]([O-])c1cccc2nc3ccccc3c(NCCCCCNc3c4ccccc4nc4cccc([N+](=O)[O-])c34)c12 | 0.0195 | 0.0832 µM | –
O=S(=O)(Cc1ccccc1)C(I)c1ccccc1 (centres undefined) | > 69.2 | 13.8 µM | –
CC(C)C(Sc1nc(-c2ccccc2)c(-c2ccccc2)[nH]1)C(=O)NN (centres undefined) | > 10.2 | 4.9 µM | –
CCOC(=O)c1cc2sc(NC(=O)c3ccco3)nc2o1 | 182 | > 200 µM | –
O=[N+]([O-])/C=C/c1c(Cl)cccc1Cl | – | – | inactive
COc1cc(/C=C2\CC/C(=C\c3ccc(O)c(OC)c3)C2=O)ccc1O | > 200 | 1.48 µM | –
CC1(C)COC(CCCCCNC2=NCCCCC2)=N1 | > 200 | > 200 µM | –
N[C@@H]1c2c(Br)sc(Br)c2C(=O)[C@H]1Br | > 200 | 23.4 µM and 26.9 µM | –
O=C(CCC/C(CC(=O)c1ccc(Cl)cc1)=N\NC(=O)c1cc2ccccc2cc1O)Nc1cccc([N+](=O)[O-])c1 | – | – | inactive
CN(Cc1cnc2nc(N)nc(N)c2n1)c1ccc(C(=O)NC(CCC(=O)NC(P(=O)(O)O)P(=O)(O)O)C(=O)O)cc1 (centres undefined) | > 200 | 11.2 µM | –

Structure (SMILES) | EC50 [µM] | IC50 | outcome
Cc1cc(NS(=O)(=O)c2ccc(NC(=O)c3cccc4c(Nc5ccc(S(N)(=O)=O)cc5)c5ccccc5nc34)cc2)no1 | > 148 | > 148 µM | –
CSc1nncc2[nH]c(C)nc12 | > 200 | > 200 µM | –
Cc1c(Cl)ccc2c1NC(=O)C2(O)CC(=O)c1ccc(Cl)cc1Cl (centres undefined) | > 0.708 | > 0.708 µM | –
NC1=NS(=O)(=O)Nc2nc(-c3ccc([N+](=O)[O-])cc3)[nH]c21 | > 200 | > 200 µM | –
COC(=O)/C(C#N)=C\n1c(=S)[nH]c2ccccc21 | > 200 | > 200 µM | –
Nc1nc(NCC2(CO)CCC2)cc(=O)[nH]1 | > 200 | > 200 µM | –
O=C(O)c1ccc(C(=O)c2ccccc2C(=O)O)cc1C(=O)O | 19.1 | > 200 µM | –
CC(=O)NS(=O)(=O)c1ccc(NC(=O)c2ccccc2SC(C)=O)cc1 | 17 | 112 µM | –
CN(C)[C@@H]1C(=O)C(C(=O)NCNC(CO)(CO)CO)=C(O)[C@@]2(O)C(=O)C3=C(O)c4c(O)cccc4[C@@](C)(O)[C@H]3C[C@@H]12 | > 42.7 | 33.9 µM | –
COc1ccc(C(=O)CC2=Nc3nnc(CCCCCCCc4nnc5n4C(=O)C(CC(=O)c4ccc(OC)cc4)=N5)n3C2=O)cc1 | > 4.27 | > 4.27 µM | –
O=C1C(NS(=O)(=O)c2ccccc2)=C(n2cnc3ccccc32)C(=O)c2ccccc21 | > 200 | 145 µM | –
C1=NCCNCCN=Cc2ccccc2OCc2cccc(n2)COc2ccccc21 | > 200 | 10.7 µM | –
Cc1cc(C)nc(NS(=O)(=O)c2ccc(NC(=O)c3cccc4c(Nc5ccc(S(=O)(=O)N=C(N)N)cc5)c5ccc(Cl)cc5nc34)cc2)n1 | > 49 | > 49 µM | –
NC(=S)N/N=C/c1cccc(CC(O)(C(F)(F)F)C(F)(F)F)n1 | > 200 | 5.89 µM | –
C[CH2][Sn]([CH2]C)([O]C(=O)c1ccc(F)cc1)[O]C(=O)c1ccc(F)cc1 | > 110 | 3.63 µM | –
CN1C/C(=C\c2ccncc2)C(=O)/C(=C/c2ccncc2)C1 | 52.5 | > 200 µM | –
O=C(NNc1ccnc2cc(Cl)ccc12)/C(=C\c1ccccc1Cl)NC(=O)c1ccccc1 | > 100 | 56.2 µM | –
CC(=O)Oc1cc(O)c2c(=O)c(OC(C)=O)c(-c3ccc(OC(C)=O)c(OC(C)=O)c3)oc2c1 | > 200 | 33.9 µM | –
O=C1NC(=O)/C(=C/c2ccc(S(=O)(=O)N/N=C\C(O)C(O)C(O)CO)cc2)N1 (centres undefined) | > 200 | 135 µM and 191 µM | –
CC1CC2OC(/C=C/C=C/C=C/C=C\C=C\C(O)=C3/C(=O)C(C(C)C)N(C)C3=O)C(O)C2O1 (centres undefined) | > 200 | 107 µM | –
CCCCc1ccc(-n2sc3ncc([N+](=O)[O-])cc3c2=O)cc1 | > 17 | 10 µM | –
